Test results as given in patent publication US5767268A, “Sulfuric acid esters of amino sugars” (Hoffmann-La Roche Inc., priority 1995, dated 1998).
Structures can show the parent of a compound that is named as a salt. Where two headings read alike, the source gives them in different places.

Assays:
[1] = test system: neointima in rat carotids; experiment: In vivo assay of the antiproliferative activity in damaged rat carotids (neointima); design: species or system rat (male Wistar Kyoto); conditions: 1 mg/kg/h i.v., p<0.001 t-test
Experimental: In vivo assay for the determination of the antiproliferative activity of the compounds in accordance with the invention in damaged rat carotids
After narcosis, the left carotids of male Wistar Kyoto rats (300-400 g) were damaged with a 2 F embolectomy catheter by drawing the catheter in the pumped-up state three times through the vessel. After wound healing, the animals were kept in pairs with standard feed and water ad libidum.
The compounds were administered in concentrations of 0.3-1 mg/kg/h i.v. For this purpose, during the narcosis an osmotic minipump was implanted into the animals under the dorsal skin and was attached to the jugular vein. Thus, the compounds could be administered constantly during the entire test period of 14 days.
After 14 days proliferative tissue (neointima) had formed, the size of which could be determined morphometrically on histological cross-sections.For this purpose, the rats were sacrificed and perfusion-fixed with glutaraldehyde.

rat smooth muscle cells = experiment: Antiproliferative activity (ri, relative to heparin) in rat smooth muscle cells; type: cell-based; design: key: growth inhibition relative to heparin at 100 μg/ml, same experiment; conditions: 100 μg/ml, 48 h, relative to heparin at 100 μg/ml in the same experiment
Experimental: Antiproliferative Activity
The antiproliferative activity of a substance is expressed as the ri value which is a comparative value to the corresponding activity of heparin and which was determined in cell cultures as follows: rat smooth muscle cells were applied to cell culture plates in a density of 8×10^3 cells/well (medium: DMEM with 10% FCS. Cultivation at 37° C. and 5% CO2). After 4 hours, the number of adhered cells was determined and the substances to be tested (100 μg/ml, dissolved in H2 O) were added. […] Subsequently, the cells were incubated for 48 h. and thereafter the cell count was determined once more.
The inhibition i of the cell growth, that is, the reduction in the growth rate of the cells in percent compared to the control, was calculated from these values. [formula] the growth rate μbeing calculated as [formula] in which Z is the number of cells and d is the time in days.
Finally, ri --the relative inhibitory activity--which expresses the activity of a substance (at 100 μg/ml) in comparison to the activity of heparin in the same concentration in the same experiment, was calculated: [formula] Blood Coagulation Inhibition

thrombin = molecular target: T1, thrombin (Homo sapiens, UniProt P00734); type: biochemical
T1 construct: purchased Roche Basle (Thrombin Reagent)
Experimental: (§1) Inhibition of thrombin or Factor Xa in the Chromogen Substrate Test (Teien et al., Thrombosis Research 10, 399-410 (1977)): The determination was effected in a Cobas-Bio centrifugal automatic spectrophotometer. The buffer solution used consisted of 50 mM Tris buffer, 180 mM NaCl, 7.5 mM EDTA Na2, 1% PEG 6000 and 0.02% Tween 80, pH 8.4. The test solution consisted of 50 μl of buffer, 30 μl of antithombin III (1U/ml, Kabi Diagnostica) and 20 μl of plasma which contained various concentrations of test compounds. 30 μl of sample solution and 20 μl of water with 180 μl of thrombin (1U/ml, Thrombin Reagent Roche Basle) were added to the test cuvette in the automatic analyzer. After incubation at 37° C. for 240 seconds, 60 μl of S-2238 (H-D-Phe-Pip-Arg-NH.pNA, Kabi Diagnostica, Mondal, Sweden, 0.75 mM in water) and 20 μl of water were added. The liberation of pNA (p-nitro-aniline) was followed during 60 seconds at 405 nm in 10 second intervals in comparison to water as the blank.

Factor Xa = molecular target: T2, Factor Xa (Bos taurus, UniProt P00743); experiment: Blood coagulation inhibition: inhibition of Factor Xa in the Chromogen Substrate Test; type: biochemical
T2 sequence (P00743 41-180 limits assumed): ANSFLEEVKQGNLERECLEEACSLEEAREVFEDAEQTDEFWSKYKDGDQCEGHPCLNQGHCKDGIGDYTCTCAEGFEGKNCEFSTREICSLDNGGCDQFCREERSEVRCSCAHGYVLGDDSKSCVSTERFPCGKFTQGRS
Experimental: as §1
The inhibition of Factor Xa was measured in the same manner using a solution of Factor Xa (2.8 nkat/ml and 2 mM S-2222 (Bz-CO-Ile-Glu-Arg-NH.pNA, Kabi Diagnostica) in water in place of thrombin and, respectively, S-2238.

[2] = with antithrombin III and plasma, S-2238 substrate, 37° C., pH 8.4; read-out: Anticoagulative Activity IC50 Thrombin
[3] = with antithrombin III and plasma, S-2222 substrate; read-out: Anticoagulative Activity IC50 Factor Xa
[4] = read-out: Anticoagulative Activity IC50 Thrombin; with antithrombin III and plasma, S-2238 substrate, 37° C., pH 8.4
[5] = read-out: Anticoagulative Activity IC50 Factor Xa; with antithrombin III and plasma, S-2222 substrate

Row | IC50 (thrombin; [2]) [µM] | IC50 (Factor Xa; [3]) [µM] | SMILES | cross-sectional area of the neointima in rat carotids 14 days after balloonisation [1] | Antiproliferative Activity ri (relative inhibitory activity versus heparin) (rat smooth muscle cells) | IC50 (thrombin; [4]) [µM] | IC50 (Factor Xa; [5]) [µM]
1 | – | – | O=C(N[C@H]1[C@@H](OCc2ccccc2)O[C@H](CNC(=O)[C@H](OS(=O)(=O)O)[C@@H](OS(=O)(=O)O)[C@H](OS(=O)(=O)O)[C@@H](COS(=O)(=O)O)OS(=O)(=O)O)[C@@H](OS(=O)(=O)O)[C@@H]1OS(=O)(=O)O)c1cccc(C(=O)N[C@H]2[C@@H](OCc3ccccc3)O[C@H](CNC(=O)[C@H](OS(=O)(=O)O)[C@@H](OS(=O)(=O)O)[C@H](OS(=O)(=O)O)[C@@H](COS(=O)(=O)O)OS(=O)(=O)O)[C@@H](OS(=O)(=O)O)[C@@H]2OS(=O)(=O)O)c1 [Example 24, Isophthalic acid bis-[[benzyl 2,6-didesoxy-6-(2,3,4,5,6-penta-O-sulfo-D-gluconoylamino)-3,4-di-O-sulfo-a-D-gluco-pyranosid-2-yl]-amide] tetradecasodium salt] | significantly reduced | – | – | –
2 | > 450 | > 450 | O=C(N[C@H]1[C@@H](OCc2ccccc2)O[C@H](CNC(=O)[C@H](OS(=O)(=O)O)[C@@H](OS(=O)(=O)O)[C@H](OS(=O)(=O)O)[C@@H](COS(=O)(=O)O)OS(=O)(=O)O)[C@@H](OS(=O)(=O)O)[C@@H]1OS(=O)(=O)O)c1ccc(-c2ccc(C(=O)N[C@H]3[C@@H](OCc4ccccc4)O[C@H](CNC(=O)[C@H](OS(=O)(=O)O)[C@@H](OS(=O)(=O)O)[C@H](OS(=O)(=O)O)[C@@H](COS(=O)(=O)O)OS(=O)(=O)O)[C@@H](OS(=O)(=O)O)[C@@H]3OS(=O)(=O)O)cc2)cc1 [Example 14, Biphenyl-4,4'-dicarboxylic acid bis-[[benzyl 2,6-didesoxy-3,4-di-O-sulfo-6-(2,3,4,5,6-penta-O-sulfo-D-gluconoylamino)-a-D-glucopyranosid-2-yl]-amide] tetradecasodium salt] | significantly reduced | 1.2 | – | –
3 | – | – | O=C(N[C@H]1[C@@H](OCc2ccccc2)O[C@H](CN2C(=O)c3ccc4c5c(ccc(c35)C2=O)C(=O)N(C[C@H]2O[C@H](OCc3ccccc3)[C@H](NC(=O)c3ccc(NC[C@H](OS(=O)(=O)O)[C@@H](OS(=O)(=O)O)[C@H](OS(=O)(=O)O)[C@@H](COS(=O)(=O)O)OS(=O)(=O)O)c([N+](=O)[O-])c3)[C@@H](OS(=O)(=O)O)[C@@H]2OS(=O)(=O)O)C4=O)[C@@H](OS(=O)(=O)O)[C@@H]1OS(=O)(=O)O)c1ccc(NC[C@H](OS(=O)(=O)O)[C@@H](OS(=O)(=O)O)[C@H](OS(=O)(=O)O)[C@@H](COS(=O)(=O)O)OS(=O)(=O)O)c([N+](=O)[O-])c1 [Example 34, 2,7-Bis-[benzyl 2,6-didesoxy-2-[3-nitro-4-(2,3,4,5,6-penta-O-sulfo-D-glucit-1-ylamino)-benzoylamino]-3,4-di-O-sulfo-a-D-1 5 glucopyranosid-6-yl]-1,2,3,6,7,8-hexahydro-benzo[lmn][3,8] phenanthroline-1,3,6,8-tetraone tetradecasodium salt] | – | 3.9 | > 393 | > 393
4 | > 495 | > 495 | O=C(CO[C@@H]1[C@@H](NC(=O)c2ccc(-c3ccc(C(=O)N[C@H]4[C@@H](OCc5ccccc5)O[C@@H]5CO[C@@H](c6ccccc6)O[C@H]5[C@@H]4OCC(=O)N[C@H]4[C@@H](OCc5ccccc5)O[C@H](COS(=O)(=O)O)[C@@H](OS(=O)(=O)O)[C@@H]4OS(=O)(=O)O)cc3)cc2)[C@@H](OCc2ccccc2)O[C@@H]2CO[C@@H](c3ccccc3)O[C@@H]12)N[C@H]1[C@@H](OCc2ccccc2)O[C@H](COS(=O)(=O)O)[C@@H](OS(=O)(=O)O)[C@@H]1OS(=O)(=O)O [Example 11, (Biphenyl-4,4'-dicarboxylic acid) bis-[[benzyl 3-O-[(benzyl 2-desoxy-2,3,4-tri-O-sulfo-a-D-glucopyranoside)-2-yl-carbamoylmethyl]-4,6-(R)-O-benzylidene-2-desoxy-a-D-glucopyranosid-2-yl]-amide] hexasodium salt] | – | 1.7 | – | –
5 | – | – | O=C(NC[C@H]1O[C@H](OCc2ccccc2)[C@H](NC(=O)c2ccc(NC[C@H](OS(=O)(=O)O)[C@@H](OS(=O)(=O)O)[C@H](OS(=O)(=O)O)[C@@H](COS(=O)(=O)O)OS(=O)(=O)O)c([N+](=O)[O-])c2)[C@@H](OS(=O)(=O)O)[C@@H]1OS(=O)(=O)O)c1cccc(C(=O)NC[C@H]2O[C@H](OCc3ccccc3)[C@H](NC(=O)c3ccc(NC[C@H](OS(=O)(=O)O)[C@@H](OS(=O)(=O)O)[C@H](OS(=O)(=O)O)[C@@H](COS(=O)(=O)O)OS(=O)(=O)O)c([N+](=O)[O-])c3)[C@@H](OS(=O)(=O)O)[C@@H]2OS(=O)(=O)O)c1 [Example 33, Isophthalic acid bis-[[benzyl 2,6-didesoxy-2-[4-(2,3,4,5,6-penta-O-sulfo-D-glucit-1-ylamino)-3-nitro-benzoylamino]-3,4-di-O-sulfo-a-D-glucopyranosid-6-yl]-amide] tetradecasodium salt] | – | 1.5 | > 409 | > 409
